Results on 13 compounds are retold here after ChEMBL document CHEMBL1909046, “DrugMatrix in vitro pharmacology data”.

Test [1] addresses Mitogen-activated protein kinase 3 (Homo sapiens, UniProt P27361). Put plainly: DRUGMATRIX: Protein Serine/Threonine Kinase, ERK1 enzyme inhibition (substrate: Myelin Basic Protein). Also noted: species or system Escherichia coli. Conditions: Not Active = under 50% inhibition at 10 µM.
The next test concerns the target Cannabinoid receptor 1 (Homo sapiens, UniProt P21554). It counts as cell membranes, Chem-1, Membrane. Particulars: chem-1. Note: in other assays of this panel Not Active means under 50% inhibition at 10 µM.
For test [2], the target named is Kappa-type opioid receptor (Homo sapiens, UniProt P41145). Put plainly: DRUGMATRIX: Opiate kappa (OP2, KOP) radioligand binding (ligand: [3H] Diprenorphine). It counts as cell membranes, HEK293, Membrane. Particulars: hek293; Not Active = under 50% inhibition at 10 µM.
For test [3], the target named is T1, Alpha-1A adrenergic receptor (Rattus norvegicus, UniProt P43140).
T1 sequence (P43140 whole entry): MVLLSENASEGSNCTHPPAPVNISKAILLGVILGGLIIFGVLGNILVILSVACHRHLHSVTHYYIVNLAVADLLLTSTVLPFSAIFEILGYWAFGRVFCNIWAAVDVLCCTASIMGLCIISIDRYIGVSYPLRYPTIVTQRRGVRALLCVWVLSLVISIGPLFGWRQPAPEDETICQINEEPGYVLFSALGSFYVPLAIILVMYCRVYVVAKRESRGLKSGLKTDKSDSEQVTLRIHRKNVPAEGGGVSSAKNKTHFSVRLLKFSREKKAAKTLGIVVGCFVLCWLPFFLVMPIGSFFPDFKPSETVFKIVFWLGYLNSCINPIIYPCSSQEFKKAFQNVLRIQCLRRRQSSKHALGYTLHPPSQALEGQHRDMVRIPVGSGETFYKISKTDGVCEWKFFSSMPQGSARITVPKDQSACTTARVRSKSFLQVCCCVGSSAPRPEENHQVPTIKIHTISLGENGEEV
Put plainly: DRUGMATRIX: Alpha-1A adrenergic receptor radioligand binding (ligand: prazosin). It counts as cell membranes, Wistar, Submaxillary gland, Membrane. Conditions: Not Active = under 50% inhibition at 10 µM.

A short description of test [4]: DRUGMATRIX: GABAA, Muscimol, Central radioligand binding (ligand: [3H] Muscimol). Conditions: Not Active = under 50% inhibition at 10 µM. It counts as cell membranes, Rattus norvegicus, Wistar, Brain, Membrane.
Test [5] addresses T2, Receptor-type tyrosine-protein phosphatase C (Homo sapiens, UniProt P08575).
T2 sequence (P08575 whole entry): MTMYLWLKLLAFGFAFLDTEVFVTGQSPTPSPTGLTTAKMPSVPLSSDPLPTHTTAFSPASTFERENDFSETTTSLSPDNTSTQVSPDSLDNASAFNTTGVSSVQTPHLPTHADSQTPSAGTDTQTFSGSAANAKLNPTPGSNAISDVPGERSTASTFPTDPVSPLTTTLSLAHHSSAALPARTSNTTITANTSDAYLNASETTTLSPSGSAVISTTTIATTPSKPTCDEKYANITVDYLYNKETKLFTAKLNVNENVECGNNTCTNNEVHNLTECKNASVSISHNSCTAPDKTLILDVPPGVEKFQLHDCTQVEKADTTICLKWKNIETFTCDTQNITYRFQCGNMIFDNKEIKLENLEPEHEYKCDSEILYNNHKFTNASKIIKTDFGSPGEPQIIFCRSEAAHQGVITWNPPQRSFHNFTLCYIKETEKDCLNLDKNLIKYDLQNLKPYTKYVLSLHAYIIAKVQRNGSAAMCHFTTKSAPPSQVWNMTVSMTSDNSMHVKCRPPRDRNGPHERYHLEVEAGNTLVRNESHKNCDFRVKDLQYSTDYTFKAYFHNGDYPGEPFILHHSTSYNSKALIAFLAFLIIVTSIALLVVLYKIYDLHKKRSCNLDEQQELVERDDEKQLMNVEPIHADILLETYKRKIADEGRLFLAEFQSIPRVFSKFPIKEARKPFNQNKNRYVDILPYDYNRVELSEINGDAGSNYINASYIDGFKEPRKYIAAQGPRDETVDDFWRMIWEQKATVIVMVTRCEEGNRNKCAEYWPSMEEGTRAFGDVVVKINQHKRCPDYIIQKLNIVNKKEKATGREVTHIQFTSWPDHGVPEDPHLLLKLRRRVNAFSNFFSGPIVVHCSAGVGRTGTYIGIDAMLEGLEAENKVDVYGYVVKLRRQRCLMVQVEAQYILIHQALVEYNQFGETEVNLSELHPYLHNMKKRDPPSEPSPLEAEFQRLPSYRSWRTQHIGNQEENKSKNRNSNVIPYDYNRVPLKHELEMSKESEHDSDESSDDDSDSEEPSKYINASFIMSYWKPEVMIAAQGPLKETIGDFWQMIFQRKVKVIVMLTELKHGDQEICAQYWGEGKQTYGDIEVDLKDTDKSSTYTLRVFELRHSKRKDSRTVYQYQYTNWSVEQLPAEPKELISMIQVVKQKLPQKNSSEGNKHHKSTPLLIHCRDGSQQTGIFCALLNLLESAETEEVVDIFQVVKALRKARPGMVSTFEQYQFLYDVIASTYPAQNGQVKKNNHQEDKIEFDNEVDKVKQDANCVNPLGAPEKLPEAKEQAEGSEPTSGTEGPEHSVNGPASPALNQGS
Also noted: species or system Escherichia coli.

Structures are written as SMILES.

Chain of Kappa-type opioid receptor (P41145 whole entry): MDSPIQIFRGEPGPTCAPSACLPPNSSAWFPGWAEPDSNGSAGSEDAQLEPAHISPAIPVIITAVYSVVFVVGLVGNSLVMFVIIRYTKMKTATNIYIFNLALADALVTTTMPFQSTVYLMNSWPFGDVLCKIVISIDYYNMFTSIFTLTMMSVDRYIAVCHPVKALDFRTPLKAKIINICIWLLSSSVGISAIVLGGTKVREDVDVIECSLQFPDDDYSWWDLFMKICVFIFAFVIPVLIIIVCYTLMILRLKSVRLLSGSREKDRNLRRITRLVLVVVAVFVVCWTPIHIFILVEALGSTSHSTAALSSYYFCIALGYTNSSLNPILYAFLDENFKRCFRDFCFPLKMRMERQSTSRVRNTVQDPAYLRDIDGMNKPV
Chain of Cannabinoid receptor 1 (P21554 whole entry): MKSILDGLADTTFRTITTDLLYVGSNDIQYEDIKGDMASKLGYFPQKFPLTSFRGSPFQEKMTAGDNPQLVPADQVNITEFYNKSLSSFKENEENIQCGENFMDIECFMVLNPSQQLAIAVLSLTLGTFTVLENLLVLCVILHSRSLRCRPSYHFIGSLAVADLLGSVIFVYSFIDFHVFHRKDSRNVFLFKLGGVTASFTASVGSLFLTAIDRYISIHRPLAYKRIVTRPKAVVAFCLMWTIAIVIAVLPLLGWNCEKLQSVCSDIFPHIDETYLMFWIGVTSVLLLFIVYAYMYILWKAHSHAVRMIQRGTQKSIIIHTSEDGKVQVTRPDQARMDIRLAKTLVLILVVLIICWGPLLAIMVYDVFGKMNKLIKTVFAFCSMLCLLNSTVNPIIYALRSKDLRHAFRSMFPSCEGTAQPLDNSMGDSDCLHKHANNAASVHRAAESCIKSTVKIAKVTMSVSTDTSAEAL
Chain of Mitogen-activated protein kinase 3 (P27361 whole entry): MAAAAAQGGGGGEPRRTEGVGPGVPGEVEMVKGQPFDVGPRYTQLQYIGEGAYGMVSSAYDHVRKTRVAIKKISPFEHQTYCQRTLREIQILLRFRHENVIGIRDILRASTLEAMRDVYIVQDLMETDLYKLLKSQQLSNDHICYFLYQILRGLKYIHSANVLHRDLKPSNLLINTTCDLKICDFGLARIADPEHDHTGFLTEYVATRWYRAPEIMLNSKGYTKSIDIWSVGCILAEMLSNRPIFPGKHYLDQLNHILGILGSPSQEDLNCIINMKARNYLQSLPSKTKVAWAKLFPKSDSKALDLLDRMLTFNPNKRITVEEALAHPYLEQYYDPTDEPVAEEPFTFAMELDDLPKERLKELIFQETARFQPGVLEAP

As usually defined, the IC50 is the midpoint of a concentration-inhibition curve. As a reminder, the Ki is the equilibrium dissociation constant of an inhibitor or competing ligand from its target. For the compound `CS(=O)(=O)Nc1ccc([N+](=O)[O-])cc1Oc1ccccc1` [NIMESULIDE], the concentration for half-maximal inhibition (IC50) result (in test [1]; at Cannabinoid receptor 1; in test [2]; in test [3]; in test [4]; in test [5]) was “Not Active” in each case. In addition, the inhibition constant Ki result in test [4] is listed as “Not Active”.
Regarding `CN1C(=O)CN=C(c2ccccc2)c2cc([N+](=O)[O-])ccc21` [NIMETAZEPAM], the half-maximal inhibitory concentration (IC50) entry (in test [1]; against Cannabinoid receptor 1; in test [2]; in test [3]; in test [4]; in test [5]) was “Not Active” throughout. Also, in test [4], the Ki result was “Not Active”.
`COc1ccc2c(c1OC)C(=O)O[C@@H]2[C@H]1c2c(cc3c(c2OC)OCO3)CCN1C` [NOSCAPINE]: the half-inhibitory concentration (IC50) result (in test [1]; against Cannabinoid receptor 1; in test [2]; in test [3]; in test [4]; in test [5]) was “Not Active” throughout. In test [4], the Ki result is listed as “Not Active”.
Turning to `NC(=O)N1c2ccccc2CC(=O)c2ccccc21` [OXCARBAZEPINE], the IC50 entry (in test [1]; against Cannabinoid receptor 1; in test [2]; in test [3]; in test [4]; in test [5]) was “Not Active” throughout. Besides, the Ki entry in test [4] is given as “Not Active”.
Consider `COc1ccnc(C[S+]([O-])c2nc3ccc(OC(F)F)cc3[nH]2)c1OC` (configuration not stated) [PANTOPRAZOLE], for which the IC50 entry (in test [1]; on Cannabinoid receptor 1; in test [2]; in test [3]; in test [4]; in test [5]) was “Not Active” each time. Also, the Ki entry in test [4] is on record as “Not Active”.
Take `N=C(N)c1ccc(OCCCCCOc2ccc(C(=N)N)cc2)cc1` [PENTAMIDINE]: the IC50 result in test [1] was “Not Active”; at Cannabinoid receptor 1, “Not Active”; in test [2], “Not Active”; in test [3] (read-out: IC50), 1210 nM; in test [4], “Not Active”; in test [5], “Not Active”. In addition, the Ki in test [3] (read-out: Ki) is 491 nM; in test [4], “Not Active”.
In the case of `CCc1ccc(CCOc2ccc(CC3SC(=O)NC3=O)cc2)nc1` (configuration not stated) [PIOGLITAZONE], the IC50 result (in test [1]; on Cannabinoid receptor 1; in test [2]; in test [3]; in test [4]; in test [5]) was “Not Active” throughout. In addition, the Ki result in test [4] is “Not Active”.
On to `CCCNC(C)C(=O)Nc1ccccc1C` (configuration not stated) [PRILOCAINE], for which the IC50 entry (in test [1]; against Cannabinoid receptor 1; in test [2]; in test [3]; in test [4]; in test [5]) was “Not Active” in each case. Besides, the Ki result in test [4] is reported as “Not Active”.
As for `CCN(CC)CCNC(=O)c1ccc(N)cc1` [PROCAINAMIDE], the IC50 result (in test [1]; against Cannabinoid receptor 1; in test [2]; in test [3]; in test [4]; in test [5]) was “Not Active” in each case. In addition, in test [4], the inhibition constant (Ki) result was “Not Active”.
Turning to `CCN(CC)CCCC(C)Nc1c2ccc(Cl)cc2nc2ccc(OC)cc12` (configuration not stated) [QUINACRINE], the concentration for half-maximal inhibition (IC50) result (in test [1]; against Cannabinoid receptor 1; in test [2]; in test [3]; in test [4]; in test [5]) was “Not Active” in each case. Moreover, the Ki entry in test [4] is given as “Not Active”.
Regarding `C[C@]12C=CC(=O)C=C1CC[C@H]1[C@@H]3C[C@@H](O)[C@](O)(C(=O)CO)[C@@]3(C)C[C@H](O)[C@@]12F` [TRIAMCINOLONE], the IC50 result (in test [1]; against Cannabinoid receptor 1; in test [2]; in test [3]; in test [4]; in test [5]) was “Not Active” throughout. Besides, in test [4], the Ki entry is “Not Active”.
Regarding `CC[C@]1(O)C[C@@H]2CN(CCc3c([nH]c4ccccc34)[C@@](C(=O)OC)(c3cc4c(cc3OC)N(C)[C@H]3[C@@](O)(C(N)=O)[C@H](O)[C@]5(CC)C=CCN6CC[C@]43[C@@H]65)C2)C1` [VINDESINE], the IC50 entry (in test [1]; at Cannabinoid receptor 1; in test [2]; in test [3]; in test [4]; in test [5]) was “Not Active” throughout. Moreover, in test [4], the inhibition constant (Ki) result was “Not Active”.
For the compound `CCN(C(C)=O)c1cccc(-c2ccnc3c(C#N)cnn23)c1` [ZALEPLON], the IC50 result (in test [1]; on Cannabinoid receptor 1; in test [2]; in test [3]; in test [4]; in test [5]) was “Not Active” each time. Also, the inhibition constant (Ki) entry in test [4] is reported as “Not Active”.
